The text below walks through data of patent US8871756B2 (Hoffmann-La Roche Inc., priority 2011, dated 2014).

The assay relates to RSV Long strain. Put plainly: Viral cytopathic effect (CPE) assay, anti-RSV activity. It is filed as cell-based, Respiratory Syncytial Virus. The following applies: human respiratory syncytial virus, 144 h, RSV Long strain (ATCC); cell viability after 6 days, Cell Counting kit-8. The method in brief:
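EC50 was derived from CCK-8 viability at 450/630 nm measured 6 days post-infection. Infection used enough RSV Long strain for approximately 80–90% cytopathic effect, in the presence of half-log serially diluted compound. Cells were plated the day before at 6×10^3 per well in DMEM/10% FBS.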
`Cc1ccc2nc(N3CCNc4ccccc4C3)cc(NCCN)c2c1` [Example 133-2, N-[6-Methyl-2-(1,2,3,5-tetrahydro-4H-1,4-benzodiazepin-4-yl)quinolin-4-yl]ethane-1,2-diamine] yielded an EC50 of 0.186 µM.
Next, `CC(=O)NCC1(CNc2cc(N3CCS(=O)(=O)c4ccccc4C3)nc3ccc(C)cc23)COC1` [Example 63-2, N-{[3-({[2-(1,1-D ioxido-2,3-dihydro-1,4-benzothiazepin-4(5H)-yl)-6-methylquinolin-4-yl]amino}methyl)oxetan-3-yl]methyl}acetamide]: 2.02 µM.
`COc1ccc2c(c1)S(=O)(=O)CCN(c1cc(NCC3(N)COC3)c3cc(C)ccc3n1)C2` [Example 1-1, N-[(3-Aminooxetan-3-yl)methyl]-2-(8-methoxy-1,1-dioxido-2,3-dihydro-1,4-benzothiazepin-4(5H)-yl)-6-methylquinolin-4-amine] returned an EC50 of 0.002 µM.
In turn, `Cc1ccc2nc(N3CCS(=O)(=O)c4ccccc4C3)nc(NCC(O)CO)c2c1` (stereo not drawn) [Example 87-1, 3-{[2-(1,1-Dioxido-2,3-dihydro-1,4-benzothiazepin-4(5H)-yl)-6-methylquinazolin-4-yl]amino}propane-1,2-diol] came in with an EC50 of 0.096 µM.
Molecule `Cc1ccc2nc(N3CCS(=O)(=O)c4ccccc4C3)cc(N3CC(N)CC3=O)c2c1` (stereo not drawn) [Example 73, 4-Amino-1-[2-(1,1-dioxido-2,3-dihydro-1,4-benzothiazepin-4(5H)-yl)-6-methylquinolin-4-yl]pyrrolidin-2-one] gave an EC50 of 6.98 µM.
Turning to `Cc1ccc2nc(N3CCS(=O)(=O)c4ccccc4C3)cc(N3C[C@@H](O)[C@@H](N)C3)c2c1` (relative stereo) [Example 13, cis-4-amino-1-[2-(1,1-Dioxido-2,3-dihydro-1,4-benzothiazepin-4(5H)-yl)-6-methylquinolin-4-yl]pyrrolidin-3-ol], the EC50 was determined as 0.026 µM.
In turn, `Cc1ccc2nc(N3CCS(=O)(=O)c4ccccc4C3)cc(CC[C@@H]3COC(N)=N3)c2c1` [Example 94, (4R)-4-{2-[2-(1,1-Dioxido-2,3-dihydro-1,4-benzothiazepin-4(5H)-yl)-6-methylquinolin-4-yl]ethyl}-4,5-dihydro-1,3-oxazol-2-amine] gave an EC50 of 6.53 µM.
In the case of `Cc1ccc2nc(N3CCS(=O)(=O)c4ccccc4C3)nc(NCC3(N)COC3)c2c1` [Example 61-1, N-[(3-Aminooxetan-3-yl)methyl]-2-(1,1-dioxido-2,3-dihydro-1,4-benzothiazepin-4(5H)-yl)-6-methylquinazolin-4-amine] it was 0.005 µM; in that of `Cc1ccc2nc(N3CCS(=O)(=O)c4ccccc4C3)cc(NCCCCCCN)c2c1` [Example 3-56, N-[2-(1,1-Dioxido-2,3-dihydro-1,4-benzothiazepin-4(5H)-yl)-6-methylquinolin-4-yl]hexane-1,6-diamine], 0.716 µM; in that of `O=S1(=O)CCN(c2nc(NCC(O)CO)c3cc(Cl)ccc3n2)Cc2ccccc21` (stereo not drawn) [Example 87-2], 9.31 µM.
Next, `CCNC1(CNc2cc(N3CCS(=O)(=O)c4ccccc4C3)nc3ccc(C)cc23)COC1` [Example 43, 2-(1,1-Dioxido-2,3-dihydro-1,4-benzothiazepin-4(5H)-yl)-N-{[3-(ethylamino)oxetan-3-yl]methyl}-6-methylquinolin-4-amine]: 0.017 µM; `Cc1ccc2nc(N3CCS(=O)(=O)c4ccccc4C3)cc(NC(=O)Cc3ccccn3)c2c1` [Example 47-6, N-[2-(1,1-Dioxido-2,3-dihydro-1,4-benzothiazepin-4(5H)-yl)-6-methylquinolin-4-yl]-2-(pyridin-2-yl)acetamide]: 2.31 µM.
The molecule `NCCNc1cc(N2Cc3ccc(Br)cc3CCC2=O)nc2ccccc12` [Example 124, 2-{4-[(2-Aminoethyl)amino]quinolin-2-yl}-7-bromo-1,2,4,5-tetrahydro-3H-2-benz azepin-3-one] returned a concentration for a half-maximal effect (EC50) of 6.1 µM.
On to `Cc1ccc2nc(N3CC[S+]([O-])c4ccccc4C3)nc(NC3(CN)COC3)c2c1` (stereo not drawn) [Example 91, N-[3-(Aminomethyl)oxetan-3-yl]-6-methyl-2-(1-oxido-2,3-dihydro-1,4-benzothiazepin-4(5H)-yl)quinazolin-4-amine], for which the midpoint of the response, the EC50, lay at 0.004 µM.
In the case of `NCC1(CNc2cc(N3CCS(=O)(=O)c4ccccc4C3)nc3ccc(CO)cc23)COC1` [Example 106, [4-({[3-(Aminomethyl)oxetan-3-yl]methyl}amino)-2-(1,1-dioxido-2,3-dihydro-1,4-benzothiazepin-4(5H)-yl)quinolin-6-yl]methanol] it was 0.002 µM.
Next, `Cc1ccc2nc(N3CCCc4cc(F)ccc4C3)cc(NCCN)c2c1` [Example 118-13, N-[2-(7-Fluoro-1,3,4,5-tetrahydro-2H-2-benzazepin-2-yl)-6-methylquinolin-4-yl]ethane-1,2-diamine]: 0.463 µM.
Next, `O=S1(=O)CCN(c2cc(NCC3(NCc4ccccc4)COC3)c3cc(Cl)ccc3n2)Cc2cc(F)ccc21` [Example 3-2, N-{[3-(Benzylamino)oxetan-3-yl]methyl}-6-chloro-2-(7-fluoro-1,1-dioxido-2,3-dihydro-1,4-benzothiazepin-4(5H)-yl)quinolin-4-amine]: 3.05 µM; `Cc1ccc2nc(N3CCS(=O)(=O)c4ccccc4C3)cc(NCC(C)C(N)=O)c2c1` (stereo not drawn) [Example 36-3, 3-{[2-(1,1-Dioxido-2,3-dihydro-1,4-benzothiazepin-4(5H)-yl)-6-methylquinolin-4-yl]amino}-2-methylpropanamide]: 2.15 µM.
Take `COC(=O)c1ccc2nc(N3CCS(=O)(=O)c4ccccc4C3)cc(NCC3(CN)COC3)c2c1` [Example 104, Methyl 4-({[3-(aminomethyl)oxetan-3-yl]methyl}amino)-2-(1,1-dioxido-2,3-dihydro-1,4-benzothiazepin-4(5H)-yl)quinoline-6-carboxylate]: the EC50 came to 0.89 µM.
Next, `CCc1ccc2nc(N3CCS(=O)(=O)c4ccccc4C3)cc(NCCN)c2c1` [Example 9-10, N-[2-(1,1-Dioxido-2,3-dihydro-1,4-benzothiazepin-4(5H)-yl)-6-ethylquinolin-4-yl]ethane-1,2-diamine]: 0.037 µM.
Consider `CCOc1ccc2c(c1)CN(c1cc(NCCN)c3ccccc3n1)CCC2` [Example 121, N-[2-(8-Ethoxy-1,3,4,5-tetrahydro-2H-2-benzazepin-2-yl)quinolin-4-yl]ethane-1,2-diamine], for which the EC50 was found to be 1.1 µM.
Next, `Cc1ccc2nc(N3CC[S+]([O-])c4ccccc4C3)cc(N3C[C@@H](N)[C@H](O)C3)c2c1` (relative stereo) [Example 19-1, trans-4-Amino-1-[6-methyl-2-(1-oxido-2,3-dihydro-1,4-benzothiazepin-4(5H)-yl)quinolin-4-yl]pyrrolidin-3-ol]: 0.043 µM.
With `Cc1ccc2nc(N3CCS(=O)(=O)c4ccccc4C3)cc(NC(=O)CO)c2c1` [Example 47-9, N-[2-(1,1-Dioxido-2,3-dihydro-1,4-benzothiazepin-4(5H)-yl)-6-methylquinolin-4-yl]-2-hydroxyacetamide], the EC50 is 0.192 µM.
`CN(C)CCNc1cc(N2CCCc3ccccc3C2)nc2ccccc12` [Example 118-22, N,N-Dimethyl-N′-[2-(1,3,4,5-tetrahydro-2H-2-benzazepin-2-yl)quinolin-4-yl]ethane-1,2-diamine] yielded a half-maximal effective concentration (EC50) of 2.23 µM.
In the case of `CCNC(=O)Nc1cc(N2CCS(=O)(=O)c3ccccc3C2)nc2ccc(C)cc12` [Example 50-2, 1-[2-(1,1-Dioxido-2,3-dihydro-1,4-benzothiazepin-4(5H)-yl)-6-methylquinolin-4-yl]-3-ethylurea], a half-maximal response (EC50) required 2.42 µM.
The molecule `OCc1cc(N2CCCc3ccccc3C2)nc2ccccc12` [Example 129, [2-(1,3,4,5-Tetrahydro-2H-2-benzazepin-2-yl)quinolin-4-yl]methanol] displayed an EC50 of 7.88 µM.
`Cc1ccc2nc(N3CC[S+]([O-])c4ccccc4C3)nc(NCCCN)c2c1` (stereo not drawn) [Example 56-6, N-[6-Methyl-2-(1-oxido-2,3-dihydro-1,4-benzothiazepin-4(5H)-yl)quinazolin-4-yl]propane-1,3-diamine] returned an EC50 of 0.002 µM.
In the case of `C=Cc1ccc2nc(N3CCS(=O)(=O)c4ccccc4C3)cc(NCCCN)c2c1` [Example 53, N-[2-(1,1-Dioxido-2,3-dihydro-1,4-benzothiazepin-4(5 H)-yl)-6-ethenylquinolin-4-yl]propane-1,3-diamine] it was 0.094 µM.
Next, `Cc1ccc2nc(N3CC[S+]([O-])c4ccccc4C3)nc(N[C@@H]3CNC[C@H]3F)c2c1` (relative stereo) [Example 92-1, N-(trans-4-Fluoropyrrolidin-3-yl)-6-methyl-2-(1-oxido-2,3-dihydro-1,4-benzothiazepin-4(5H)-yl)quinazolin-4-amine]: 0.009 µM; `Cc1ccc2nc(N3CCS(=O)(=O)c4ccccc4C3)nc(NC3CCNC3)c2c1` (stereo not drawn) [Example 135-2, 2-(1,1-Dioxido-2,3-dihydro-1,4-benzothiazepin-4(5H)-yl)-6-methyl-N-(pyrrolidin-3-yl)quinazolin-4-amine]: 0.018 µM.
Next, `Cc1ccc2nc(N3CCC(F)(F)c4ccccc4C3)cc(NCC3(N)COC3)c2c1` [Example 110-1, N-[(3-Aminooxetan-3-yl)methyl]-2-(5,5-difluoro-1,3,4,5-tetrahydro-2H-2-benzazepin-2-yl)-6-methylquinolin-4-amine]: 0.017 µM; `Cc1ccc2nc(N3CCS(=O)(=O)c4ccccc4C3)cc(N3C[C@@H]4NCCO[C@@H]4C3)c2c1` [Example 8-5, 4-{4-[(4aS,7aR)-Hexahydropyrrolo[3,4-b][1,4]oxazin-6(2H)-yl]-6-methylquinolin-2-yl}-2,3,4,5-tetrahydro-1,4-benzothiazepine 1,1-dioxide]: 0.074 µM; `Cc1ccc2nc(N3CCS(=O)(=O)c4ccccc4C3)cc(Nc3ccon3)c2c1` [Example 3-64, 2-(1,1-Dioxido-2,3-dihydro-1,4-benzothiazepin-4(5H)-yl)-6-methyl-N-(1,2-oxazol-3-yl)quinolin-4-amine]: 0.874 µM.
